Test results: PMC9481570, “A small molecule antagonist of SMN disrupts the interaction between SMN and RNAP II” (Nature Communications, 2022)

Assays:
[1] = test system: SMN occupancy at ACTB gene; experiment: SMN ChIP-qPCR along the ACTB gene; format: cell-based, human; settings: 72 h; for SMN/RNAPII, ACTB position 332 / SMN/RNAPII, ACTB position 1671 / SMN/RNAPII, ACTB position 2911 / SMN/RNAPII, ACTB position 3752 / SMN/RNAPII, ACTB position 4657 / SMN/RNAPII, ACTB position 5590 / SMN/RNAPII, ACTB position -72: HEK293, 20 μM, ChIP-qPCR, DMSO = 1; for occupancy levels of SMN along the ACTB gene: HEK293 cells, 20 µM
Experimental: ChIP was performed using the EZ-ChIP™ A - Chromatin Immunoprecipitation Kit (Millipore, 17-371) according to the manufacturer’s instruction. Antibodies were used with a range of 1–2 μg, and IgG (Millipore, polyclonal antibody, 12-370) was used as a background control. After immunoprecipitation, genomic DNA was de-crosslinked in ChIP elution buffer containing 5 M NaCl at 65 °C overnight and purified with the Qiaex II kit (Qiagen, 20021), and eluted in water for PCR amplification. Immunoprecipitated and input DNAs were used as templates for qPCR. The qPCR primer sequences for ACTB gene are the same as described earlier[9] and shown in the Supplementary Table 2. For analysis of SMN chemical antagonists, HEK293 cells were treated with DMSO, compound 1 or compound 2 (a final concentration of 20 μM) for 72 h, before processing for ChIP.

R-loops in HEK293 cells = experiment: Global nuclear R-loop immunofluorescence (S9.6 antibody); format: cell-based, human; settings: 20 μM, 72 h, S9.6 immunofluorescence
Experimental: Global nuclear R-loop detection was ascertained via immunofluorescence using the S9.6 antibody (Kerafast, ENH001)[58]. At 24 h prior to immunofluorescence, 40,000 cells were seeded on to Poly-L-Lysine (PLL) coated coverslips. Cells were fixed using 1% formaldehyde for 15 min, washed three times with PBS, permeabilized with 0.3% Triton X-100 and washed again three times with PBS. Coverslips were blocked using 5% BSA for 1 h at room temperature and transferred to humidified chambers for antibody incubations. Coverslips were incubated with 60 μL of monoclonal S9.6 antibody (Kerafast, ENH001, 1:500) for 1 h at room temperature. After washing with PBS, cells were incubated with a secondary goat anti-mouse Alexa Fluor 488 antibody (Thermo Fisher, A11001, 1:1000) for 1 h in a dark chamber. Following further washing and DAPI staining, coverslips were mounted onto microscope slides using DAKO fluorescent mounting medium (Agilent, S302380-2) and then sealed with nail polish. […] The coverslips were processed for immunofluorescence 24 h later using the primary antibodies monoclonal S9.6 (Kerafast, ENH001, 1:500), or polyclonal anti-RNase H1 (Proteintech, 15606-1-AP, 1:500) and the secondary antibodies goat anti-mouse Alexa Fluor 488 (Thermo Fisher, A11001, 1:1000) or goat anti-rabbit Alexa Fluor 568 (Thermo Fisher, A11011, 1:1000) to quantify R-loop and confirm RNase H1 overexpression, respectively. […]

SMN-POLR2A interaction = target: T1, SMN-POLR2A interaction (Homo sapiens, UniProt Q16637); experiment: Coimmunoprecipitation of POLR2A with SMN in HEK293 cells; format: cell-based; settings: 72 h; for inhibition of the interaction between SMN and POLR2A: 20 µM; for coimmunoprecipitation of POLR2A with SMN: series of concentrations
T1 construct: endogenous in cells; host or cells: HEK293
T1 sequence (Q16637 2-294 limits assumed): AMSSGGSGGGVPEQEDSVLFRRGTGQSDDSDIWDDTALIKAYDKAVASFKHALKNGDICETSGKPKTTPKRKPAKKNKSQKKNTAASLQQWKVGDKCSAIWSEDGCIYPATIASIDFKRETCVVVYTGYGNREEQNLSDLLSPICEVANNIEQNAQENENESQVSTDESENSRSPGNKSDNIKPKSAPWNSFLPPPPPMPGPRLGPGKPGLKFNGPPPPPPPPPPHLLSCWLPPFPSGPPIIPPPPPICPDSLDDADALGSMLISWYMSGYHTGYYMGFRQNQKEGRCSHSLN
Experimental: HEK293 cells (ATCC, CRL-1573) were grown in DMEM (SLRI media facility) plus 10% FBS (Sigma, F1051). For analysis of SMN chemical antagonists, HEK293 cells were treated with DMSO or a series of concentrations (0, 2, 6, 10, 20, 30, 40, and 80 μM) of compound 1, compound 2 or negative compound 15 for 72 h. CRISPR-mediated SMN1 gene knockout was performed according to our previous study. Briefly, 2 μg of CRISPR/Cas9 plasmid (pCMV-Cas9-GFP), which expresses scrambled guide RNA, or guide RNA that targets the SMN1 gene exon1 (gRNA target sequence: […]) or exon3 (gRNA target sequence: […]) was transfected into HEK293 cells. Cells were sorted by BD FACSAria flow cytometry at Donnelly Center, University of Toronto 24 h after transfection, and single GFP-positive cells were seeded into a 48-well plate. The expression levels of SMN in each clone were detected by immunofluorescence. The transfection of GFP-RNase H1 R-loop-binding domain (GFP-HB) for R-loop detection into HEK293 cells was performed with the FuGENE Transfection reagent (Roche, E269A).
The experiments were performed following procedure as previously described with minor modifications. […] The supernatant cell lysates were sonicated with five on and off cycles of 0.3 s/0.7 s per mL and incubated for 30 min at 4 °C with 12.5–25 units/mL benzonase nuclease (Sigma, E1014) to remove RNA and DNA, followed by centrifugation at 18,400 × g for 30 min at 4 °C. The supernatant cell lysates were incubated with 2 μg of antibody overnight at 4 °C, followed by the addition of 20 μL of Dynabeads Protein G beads (Invitrogen, 10004D) for an additional incubation for 4 h. After washing with low-salt buffer (10 mM Tris-HCl, pH 7.9, 100 mM NaCl, and 0.1% Nonidet P-40) 3 times, 10 min/time, associated proteins were eluted into protein-loading buffer and separated by Tris 4–20% SDS-polyacrylamide (Mini-PROTEAN TGX Precast Protein Gel, BioRad, 4561096), and transferred to nitrocellulose or PVDF membranes (Immu-Blot PVDF, BioRad, 1620112 or 1620177). Transferred samples were immunoblotted with primary antibodies (POLR2A, Abcam, ab5408, monoclonal antibody, clone No. 4H8; SMN, Santa Cruz Biotechnology, sc-15320, polyclonal antibody; ACTB, Sigma, A5441, monoclonal antibody, clone No. AC-15; GFP, Invitrogen, G10362, rabbit monoclonal antibody; TUBB, Santa Cruz Biotechnology, sc-9104, polyclonal antibody) at a dilution of 1:2000 to 1:5000, followed by horseradish peroxidase-conjugated goat anti-mouse or mouse anti-rabbit secondary antibody (Jackson Immuno Research, 115-035-174 or 211-032-171) at a dilution of 1:10,000. Western blot detection was performed with enhanced chemiluminescence (Pierce ECL Western Blotting Substrate, Thermo Fisher, 32209). […]

SMILES | SMN/RNAPII, ACTB position 332 [1] | SMN/RNAPII, ACTB position 1671 [1] | SMN/RNAPII, ACTB position 2911 [1] | SMN/RNAPII, ACTB position 3752 [1] | SMN/RNAPII, ACTB position 4657 [1] | SMN/RNAPII, ACTB position 5590 [1] | SMN/RNAPII, ACTB position -72 [1] | occupancy levels of SMN along the ACTB gene [1] | global nuclear R-loop levels in comparison to the DMSO controls (R-loops in HEK293 cells) | inhibition of the interaction between SMN and POLR2A (SMN-POLR2A interaction) | coimmunoprecipitation of POLR2A with SMN (SMN-POLR2A interaction)
Cn1c2c(c(=N)c3c1CCC3)CCC2 [Compound 1, 4-methyl-2,3,4,5,6,7-hexahydrodicyclopenta[b,e]pyridin-8(1H)-imine] | 0.6623 | 0.139 | 0.1085 | 0.1464 | 0.1588 | 0.03323 | 0.2631 | significantly reduced | significantly increased | significant inhibition | disrupted
CCCn1c2c(c(=N)c3c1CCC3)CCC2 [Compound 2, 4-propyl-2,3,4,5,6,7-hexahydrodicyclopenta[b,e]pyridin-8(1H)-imine] | 0.5015 | 0.45 | 0.3355 | 0.2279 | 0.35 | 0.2022 | 0.3107 | significantly reduced | significantly increased | significant inhibition | disrupted
